We go through nine molecules from US8030033B2, “Polymorphisms in ABCB1 associated with a lack of clinical response to medicaments” (priority 2004, dated 2011).

Data set [1] has as its system p-glycoprotein (ABCB1 protein). The settings on record: cited from earlier work; for uptake / penetration into the brain of mice dependent on ABCB1 protein: mice with abcb1ab knockout mutation, cited literature; for substrate of p-glycoprotein: from cited literature.
Data set [2] has as its system p-glycoprotein (abcb1a and abcb1b). In words: Drug concentrations in cerebrum and plasma of abcb1ab (-/-) mice compared to wild-type controls after 11 day subcutaneous administration. The conditions noted are these: for differences in plasma levels between abcb1ab (-/-) mutant and wildtype littermates: 11 day continuous sub-cutaneous administration; for fold higher concentration in the brain of abcb1ab (-/-) mutant compared to wildtype animals (cerebrum/plasma ratio): 11 day continuous sub-cutaneous administration via osmotic pumps, male mice; for intracerebral concentration regulated by p-glycoprotein: administration for 11 days, mice lacking abcb1a and abcb1b. As for the experimental part:
Venlafaxine and o-desmethylvenlafaxine (d-venlafaxine) was obtained from Wyeth-Pharma GmbH (Münster, Germany). […] Protriptyline was purchased from RBI (Massachusetts, USA). All other chemicals were obtained in the purest grade available from Merck (Darmstadt, Germany).
Male abcb1ab(−/−) mice and FVB/N wildtype mice were housed individually and maintained on a 12:12 h light/dark cycle (lights on at 07:00), with food and water ad libitum. Abcb1ab double knockout mice, originally created by A. Schinkel by sequential gene targeting in 129/Ola E14 embryonic stem cells^28 and backcrossed seven times (N7) to FVB/N from the C57BL/6×129 chimera, and FVB/N wildtype mice were received from Taconic (Germantown, USA; FVB/Tac-[KO]Pgy2 N7). A homozygous colony is maintained at the Max-Planck Institute of Psychiatry on the N7 FVB/N background through intercrossing of homozygous mice.
Experimental and extraction procedures were performed as described before^12,26. […] After 11 days, the mice were anesthetized and sacrificed. The dissected organs were homogenized and a liquid-liquid extraction procedure has been carried out with n-hexan/isoamylalcohol (Table 3) in the first step and phosphoric acid in the second.
HPLC measurements were performed as described before^12,26. A Beckman gradient pump, autoinjector, UV detector and a Merck fluorescence detector, were used for the high-performance liquid chromatography analysis. Separations were made on a reversed phase Luna 5μ C18(2) 250×4.6 mm column (Phenomenex, Torrance, USA), 60° C., mobile phase flow 1 ml/min. A mobile phase gradient with acetonitrile was used for the chromatography analysis (Table 3). The substances were determined by UV absorption and fluorescence at the described wavelength (Table 3).
Statistical analysis was carried out the statistic software SPSS 10.0 for windows (Chicago, Ill.). Significance was tested by one-factorial multivariate analyses of variance (MANOVAs). […] As a nominal level of significance α=0.05 was accepted and corrected (reduced according to the Bonferroni procedure) for all a posteriori tests (univariate F-tests) in order to keep the type I error less than or equal to 0.05.

A short description of data set [3]: Plasma concentration of antidepressant drugs in depressed patients according to rs2235015 genotype. It is filed as in vivo, human. The conditions noted are these: weeks 4-6 of treatment; rs2235015 GG homozygotes; SEM=51.6.
Method: All patients were treated with antidepressant drugs within a few days of admission. The type antidepressant medication was not influence by the participation in the study, but chosen freely by the responsible psychiatrist. For all patients plasma concentration of antidepressant medication was monitored to assure clinically efficient drug levels.
Plasma citalopram, mirtazapine, and paroxetine were extracted with a liquid-liquid extraction procedure and than measured after HPLC with UV absorption and fluorescence.
We used a reversed phase Luna 5μ C18(2) 250×4.6 mm column (Phenomenex, Torrance, USA), 60° C., mobile phase flow 1 ml/min. […] The extraction recovery was >90%, and the intra and inter day variation coefficient was <10%.
To detect any genotype dependent differences in antidepressant dose or plasma level, we used a one-way ANOVA with the genotype of rs2235015 as factor.

Consider `CN(C)CCCC1(c2ccc(F)cc2)OCc2cc(C#N)ccc21` (stereo not shown) [citalopram], for which the “uptake / penetration into the brain of mice dependent on ABCB1 protein” value (from here on “uptake / penetration into the brain”) in data set [1] was “involved in the uptake”.
Consider `CN(C)CC(c1ccc(O)cc1)C1(O)CCCCC1` (stereo not drawn) [d-venlafaxine, o-desmethylvenlafaxine], for which, in data set [2], the “differences in plasma levels between abcb1ab (-/-) mutant and wildtype littermates” value is “no differences”; the “fold higher concentration in the brain of abcb1ab (-/-) mutant compared to wildtype animals (cerebrum/plasma ratio)” value is on record as 4.1 fold; the “intracerebral concentration regulated by p-glycoprotein” value is “regulated by p-glycoprotein”.
As for `CN(C)CCC=C1c2ccccc2COc2ccccc21` [doxepin], the “uptake / penetration into the brain” value in data set [1] is listed as “enhancement of penetration”.
Consider `CNCCC(Oc1ccc(C(F)(F)F)cc1)c1ccccc1` (stereo not shown) [fluoxetine], for which the substrate of p-glycoprotein entry in data set [1] is “not substrate of p-glycoprotein”.
On to `CN1CCN2c3ncccc3Cc3ccccc3C2C1` (stereo not shown) [mirtazapine], for which the “differences in cerebrum/plasma ratios between abcb1ab (-/-) mutant and wildtype” value in data set [2] (mouse, in vivo) is on record as “no significant differences”.
On to `CNCCC=C1c2ccccc2CCc2ccccc21` [nortriptyline], for which the substrate of p-glycoprotein result in data set [1] is “substrate of p-glycoprotein”.
Regarding `Fc1ccc([C@@H]2CCNC[C@H]2COc2ccc3c(c2)OCO3)cc1` [paroxetine], in data set [1], the substrate of p-glycoprotein entry is “identified as a substrate of p-glycoprotein” and the “uptake / penetration into the brain” value is given as “enhancement of penetration”.
As for `CC(CN(C)C)CN1c2ccccc2CCc2ccccc21` (stereo not shown) [trimipramine], in data set [1], the “uptake / penetration into the brain” value is given as “involved in the uptake”.
On to `COc1ccc(C(CN(C)C)C2(O)CCCCC2)cc1` (stereo not shown) [venlafaxine], for which the “uptake / penetration into the brain” value in data set [1] is on record as “enhancement of penetration”. In data set [2], the “differences in plasma levels between abcb1ab (-/-) mutant and wildtype littermates” value is on record as “no differences”; the “fold higher concentration in the brain of abcb1ab (-/-) mutant compared to wildtype animals (cerebrum/plasma ratio)” value turned out to be 1.7 fold; the “intracerebral concentration regulated by p-glycoprotein” value was “regulated by p-glycoprotein”. The “mean plasma level of administered antidepressant” value in data set [3] is 356.5 ng/mL.
